Tests used:
Type in all cases: cell-based
[1] = system: A549 cells (lung cancer cell line); assay: Intracellular ATP level with PSA or PA, A549; conditions: 2, 4, 6, 8 or 10 mM, 48 hours; compared to an untreated control
Protocol: (§1) Specifically, A549 cells, IMR90 cells, H23 cells, H226 cells, H522 cells, and EKVX cells, which are lung cancer cell lines; and UACC62 cells, MALME-3M cells, A357 cells, M14 cells, and UACC257 cells, which are melanoma cell lines, were separately cultured. […] for 48 hours, and then intracellular ATP levels were examined using an ATP colorimetric/fluorometric analysis kit (BioVision, Milpitas, Calif., USA) in accordance with the manufacturer's protocol. The incubated cells were divided into groups of 1×10^6 cells, 100 μl of an ATP assay buffer was added thereto to lyse the cells, followed by centrifugation at 15,000×g and 4° C. for 2 minutes to separate only the supernatant. 2 μl to 50 μl of the separated supernatant was transferred to a 96-well plate, and then an ATP assay buffer was added thereto to a final volume of 50 μl per well. […] After mixing, the plate was maintained in a dark room at room temperature for 30 minutes, and then absorbance was measured at 570 nm using a microplate reader. To compare relative ATP levels among the measured values, an absorbance value for cancer cells to which gossypol and phenformin were not added was set as a reference, and relative absorbance values of the cases in which cancer cells were treated with each drug were compared, to compare ATP levels in the cells. […]

[2] = system: UACC62 cells (melanoma cell line); assay: Intracellular ATP level with PSA or PA, UACC62; conditions: 2, 4, 6, 8 or 10 mM, 48 hours; compared to an untreated control
Protocol: as §1

[3] = system: A549 cells (lung cancer cell line); assay: SRB cell proliferation with PSA, A549; conditions: PSA 2, 4, 6, 8 or 10 mM, 48 hours
Protocol: (§2) Specifically, A549 cells, H522 cells, H226 cells, H23 cells, and EKVX cells, which are lung cancer cell lines; and UACC62 cells, UACC257 cells, A375 cells, SK-MEL-5 cells, and MALME-3M cells, which are melanoma cell lines, were separately cultured. The respective cells were cultured at a […] dose and inoculated in a 96-well plate at a concentration ranging from 5,000 cells/ml to 20,000 cells/ml according to the doubling time of each cell line. […] After completion of the culturing, to perform SRB analysis, a cooled 50% aqueous TCA solution was added to each well to a final concentration of 10% and the cells were incubated in a 4° C. refrigerated state for 60 minutes and then fixed. After incubation, the supernatant was removed, washed five times with tap water, and dried. A 1% acetic acid aqueous solution containing 0.4% sulforhodamine B was added to the dried sample in each well and maintained at room temperature for 10 minutes to stain the cells. After staining, the dye which was not used for staining was removed by washing with a 1% acetic acid solution, and then the plate was dried again. The dye which was used for staining was dissolved in a 10 mM Trisma base solution, and then absorbance was measured at 515 nm.
(§3) Specifically, A549 cells (lung cancer cell line), UACC62 cells (melanoma cell line), and IMR90 cells (normal control, lung fibroblasts) were separately cultured. […]

[4] = system: UACC62 cells (melanoma cell line); assay: SRB cell proliferation with PSA, UACC62; conditions: PSA 2, 4, 6, 8 or 10 mM, 48 hours
Protocol: as §2, §3

[5] = system: IMR90 cells (normal control, lung fibroblasts); assay: SRB cell proliferation with PSA, IMR90; conditions: normal cell line, PSA 2, 4, 6, 8 or 10 mM, 48 hours
[6] = system: EKVX, A549, HOP-62 (lung cancer) and UACC62, UACC257, A375 (melanoma) cells; assay: SRB cell proliferation, MAS inhibitor and gossypol, cancer cell lines; conditions: 48 hours
cancer cell lines = assay: Intracellular ATP level, MAS inhibitor and gossypol, cancer cell lines; conditions: 10 μM gossypol alone vs 4 mM PSA or PA alone, 48 hours
Protocol: as §1, with “[…],” for “an absorbance value for cancer cells to which gossypol and phenformin were not added was set as a reference,”

A549 cells [7] = assay: Mitochondrial membrane potential (TMRE), A549; conditions: 10 μM gossypol alone, 48 hours
Protocol: (§4) Specifically, A549 cells, UACC62 cells, and IMR90 cells, as a normal control, were cultured. The respective cultured cells were treated with a drug mixture of 4 mM of an SLC25A11 inhibitor (PSA or PA), which is an MAS inhibitor, and 10 μM gossypol or with only one of the drugs and cultured in the same manner as described above for 48 hours, and then each cell culture solution was dispensed into chamber slides (for fluorescence microscopy) or a 6-well plate (for flow cytometry). The dispensed culture solution was treated with 100 nM tetramethylrodamine ester (TMRE) as a fluorescent probe and a reaction was allowed to occur therebetween for 20 minutes. After the reaction, the cells were washed with cooled PBS, and the fluorescence development of the cells was measured using a Zeiss LSM510 fluorescence microscope (Carl Zeiss, Oberkochen, Baden-Wurttemberg, Germany). In addition, fluorescence intensity was analyzed in a flow cytometer using a 585 nm (FL-2) channel.

[8] = system: IMR90 cells (normal control); assay: Mitochondrial membrane potential (TMRE), IMR90; conditions: single drug alone (4 mM PSA or PA; 10 μM gossypol), 48 hours
Protocol: as §4

A549 cells [9] = assay: Cell apoptosis (Annexin V-FITC/PI flow cytometry), A549; conditions: single drug alone (4 mM PSA or PA; 10 μM gossypol), 48 hours
Protocol: (§5) First, A549 cells, UACC62 cells, and IMR90 cells, as a normal control, were cultured. The cultured cells were treated with a drug mixture of a 4 mM […] inhibitor (PSA or PA), which is an MAS inhibitor, and 10 μM gossypol or with only one of the drugs and cultured in the same manner as described above for 48 hours. The medium was removed from the cultured cells, followed by washing the cells twice with cold PBS and centrifugation at 1,400 rpm for 3 minutes, and a binding buffer was added thereto so that concentration was 1×10^6 cells/[…]. Then, a […] buffer was transferred to a 5-mL culture tube and 5 μl of each of Annexin V-FITC and propidium iodine (PI) was added thereto. Mixing was performed by slowly vortexing the tube, and then the cells were incubated in a dark room at room temperature for 15 minutes. After incubation, a binding buffer (400 μl) was added thereto and the degree of increase in cell apoptosis was examined by a flow cytometer.

UACC62 cells = assay: Cell apoptosis (Annexin V-FITC/PI flow cytometry), UACC62; conditions: single drug alone (4 mM PSA or PA; 10 μM gossypol), 48 hours
Protocol: as §5

[10] = system: IMR90 cells (normal control); assay: Cell apoptosis (Annexin V-FITC/PI flow cytometry), IMR90; conditions: single drug alone (4 mM PSA or PA; 10 μM gossypol), 48 hours
Protocol: as §5

[11] = system: Huh7, SNB19, UACC62, MDA-MB-231, KATO III cancer cell lines; assay: SRB cell proliferation, NPM and etomoxir, cancer cell lines; conditions: 25 μM NPM alone, 24 hours; cancer cell lines other than SNB19

With `O=C(O)C(=O)c1ccccc1C(=O)O` [PA, phthalonic acid] the “intracellular ATP levels” value [1] was “reduced” and the “intracellular ATP levels” value [2] was “reduced”.
`O=C(O)CC(C(=O)O)c1ccccc1` (stereo not shown) [PSA, phenyl succinic acid] was tested, and the “level of cancer cell line proliferation” value [3] was “reduced in a manner dependent upon the concentration of added PSA”, the “level of cancer cell line proliferation” value [4] was “reduced in a manner dependent upon the concentration of added PSA” and the cell proliferation [5] was “not significantly inhibited”. The “intracellular ATP levels” value [1] was “reduced” and the “intracellular ATP levels” value [2] was “reduced”.
`Cc1cc2c(C(C)C)c(O)c(O)c(C=O)c2c(O)c1-c1c(C)cc2c(C(C)C)c(O)c(O)c(C=O)c2c1O` [gossypol] was tested, and the “effect of inhibiting a cell proliferation level, gossypol alone versus NPM alone” value ([6]; 10 μM gossypol alone vs 25 μM NPM) was “more significantly exhibited”, the “reduction in the cell proliferation level, gossypol alone versus PSA or PA alone” value ([6]; 10 μM gossypol alone vs 4 mM PSA or PA alone) was “more prominent” and the “intracellular ATP production level, difference between gossypol alone and PSA or PA alone” value (cancer cell lines) was “no significant difference”. For the same molecule, the mitochondrial membrane potential (A549 cells [7]) was “significant decrease”, the mitochondrial membrane potential [8] was “no significant change” and the cell apoptosis (A549 cells [9]) was “insignificant extent”. For the same molecule, the cell apoptosis (UACC62 cells) was “insignificant extent” and the cell apoptosis [10] was “no significant cell apoptosis”.
In the case of `O=C1C=CC(=O)N1c1ccc2ccc3cccc4ccc1c2c34` [NPM, N-(1-pyrenyl)maleimide], the “effect of inhibiting cancer cell proliferation” value [11] is reported as “could be exhibited”.
